Experimental findings from paper PMC8992272, “Stabilities of Three Key Biological Trisulfides with Implications for Their Roles in the Release of Hydrogen Sulfide and Bioaccumulation of Sulfane Sulfur” (ACS Omega, 2022) are described below.

Holding throughout (type): physicochemical
A short description of data set [1]: Equilibrium between di-, tri- and tetrasulfides in the presence of elemental sulfur (1H NMR). The settings on record: water with elemental sulfur, 40 °C, after 15 days, no amine.
Protocol: To test this hypothesis, a reaction was completed in D2O with elemental sulfur, NAC disulfide, and butylamine.
To understand why the degradation leveled off, NAC trisulfide was dissolved in water, elemental sulfur was added, and the contents were heated to 40 °C.
N-Acetylcysteine disulfide (9.3 mg, 23 μmol) was dissolved in 600 μL of D2O. Elemental sulfur (6.8 mg, 0.21 mmol) and butylamine (18.5 mg, 0.25 mmol) were added, and the ^1H NMR spectra were periodically obtained to track the equilibrium.
Data set [2] in a line: Stability in water/D2O buffered at different pH values, tracked by 1H NMR. An excerpt:
The ^1H NMR spectra of NAC and the disulfide, trisulfide, and tetrasulfide of NAC had peaks at unique values for chemical shifts and allowed for their easy characterization (Figure 3). Pure chemicals of each sulfide were synthesized and characterized by ^1H and ^13C NMR spectroscopy as well as by high-resolution mass spectroscopy. The unique chemical shifts of the peaks for the Ha and Hb/Hc protons on the sulfides allowed the integration of each sulfide to be determined.
The stability of NAC trisulfide in water buffered at pH values of 5.8, 7.4, and 9.0 was measured.
The stability of cysteine trisulfide was investigated in buffered water at pH values of 5.8, 7.0, and 9.0. […] At pH values of 5.8, 7.0, and 9.0, the cysteine trisulfide was soluble and its ^1H NMR spectra were obtained.
The stability of glutathione trisulfide was investigated at pH values of 5.8, 7.4, and 9.0 (Figure S14a). The degradation of glutathione trisulfide was more rapid at pH values of 5.8 and 7.4 than that of the trisulfides of NAC and cysteine. At an acidic pH of 5.8, 71% of glutathione trisulfide degraded after 10 days. At pH values of 7.4 and 9.0, glutathione trisulfide degraded 79 and 81%, respectively, at day 9. […] The degradation of glutathione trisulfide reached an equilibrium of approximately 20% with the disulfide due to the reaction catalyzed by amine with elemental sulfur. Rate constants and half-lives were obtained for the degradation of glutathione trisulfide at each pH value using early data points unaffected by the equilibrium. At pH values of 5.8, 7.4, and 9.0, the estimated half-lives were 6.3 days (151 h), 0.90 days (21.6 h), and 0.79 days (19.0 h), respectively (Figure S14b).
The stability of NAC tetrasulfide was investigated in D2O buffered at pH values of 5.8, 7.4, and 9.0 (Figure S16a). At a pH of 5.8, NAC tetrasulfide degraded by 13% after 9 days. At pH values of 7.4 and 9.0, the tetrasulfide degraded by 55 and 52%, respectively, after 9 days. At each pH, the degradation product was NAC trisulfide, elemental sulfur, and a small amount of NAC disulfide (<3%). […] Estimated rate constants and half-lives for the degradation of NAC tetrasulfide at each pH were obtained. At pH values of 5.8, 7.4, and 9.0, the estimated half-lives were 53.3, 7.5, and 8.2 days, respectively (Figure S16b).

A short description of another data set: Solubility observations. Conditions: CDCl3 and acetone.
Data set [3] can be described thus: Stability in nonbuffered D2O at room and elevated temperature (1H NMR). As to the method:
N-Acetylcysteine trisulfide (24.3 mg, 61 μmol) was dissolved in 500 μL of D2O and placed in a 40 °C oil bath. The ^1H NMR spectra were taken periodically to track degradation.
N-Acetylcysteine trisulfide (24.3 mg, 61 μmol) was dissolved in 500 μL of D2O and placed in a 60 °C oil bath. The ^1H NMR spectra were taken periodically to track degradation.
N-Acetylcysteine tetrasulfide (8.0 mg, 21 μmol) was dissolved in 600 μL of D2O. The ^1H NMR spectra were taken periodically to track degradation.
N-Acetylcysteine tetrasulfide (10.0 mg, 26 μmol) was dissolved in 600 μL of D2O and placed in a 40 °C oil bath. The ^1H NMR spectra were taken periodically to track degradation.

`CC(=O)N[C@@H](CSSSC[C@H](NC(C)=O)C(=O)O)C(=O)O` [NAC trisulfide, N-Acetylcysteine Trisulfide]: in data set [1], the disulfide formed was 12% and the tetrasulfide formed was 11%. For the same compound, in data set [2] (all pH values tested (abstract)), the stability entry is given as “stable”. Also, in data set [2] (water buffered at pH 5.8, 7.4 and 9.0, after 8 days), the degradation entry is “no observable degradation”. In the data set “Solubility observations”, the solubility entry is given as “very limited solubility”. The compound also gave a degraded in data set [3] (60 °C, in 3 days) of 74%. The degradation entry in data set [3] (water, 40 °C oil bath, after 10 days) is given as “No noticeable degradation”.
